Measured values from a melting point compilation (Tetko et al.; mined from patent text by program, amines drawn as free bases though some values may be those of a salt).

| melting point | SMILES |
| --- | --- |
| 160 to 162 °C | Nc1cc(C(=O)Nc2ccccc2)ccc1OC(F)(F)F |
| 155 to 156 °C | NC(=O)CCNC(=O)c1cccc(-c2cccc3oc(Cc4cccc(C(F)(F)F)c4)cc23)c1 |
| 120 to 122 °C | OCc1cccc2c1SC(c1ccccc1)=CC2 |
| 162 to 165 °C | CN(C)C1Cc2cc(Br)cc([N+](=O)[O-])c2NC1=O (stereo not drawn) |
| 223 to 224 °C | Clc1cccc2c(CN3CC=C(/C=C/c4ccccc4)CC3)n[nH]c12 |
| 152 °C | CC(C)(C)OC(=O)NCC(=O)OCCCNc1ccc(O)c2c1C(=O)c1c(O)cccc1C2=O |
| 268 to 270 °C | CC(=O)N(C)c1cnc2ccc(Cl)cc2c1-c1ccccc1 |
| 93 to 94 °C | COc1cc(N)cnc1Cl |
| 120 to 123 °C | COc1ccc([C@H]2O[C@](O[Si](C)(C)C)(C(F)(F)F)C(C)(C)N2C(=O)c2ccccc2)cc1 (racemic) |
| 266 to 267 °C | O=C(CN(Cc1ccccc1)c1c(C(=O)O)[nH]c2cc(Cl)cc(Cl)c12)c1ccccc1 |
| 84 to 85 °C | COCN1C(C)=C(C(=O)O)[C@H](c2cccc([N+](=O)[O-])c2)C(C(=O)OCOC(=O)C(C)(C)C)=C1C |
| 233 to 236 °C | CCOC(=O)c1cn(-c2ccc(F)cc2F)c2nc(N3CCC(NC(C)=O)C3)c(F)cc2c1=O (stereo not drawn) |
| > 225 °C | Nc1nc(-c2ccc(CCN3CCN(c4cccc5cccnc45)CC3)cc2)cs1 |
| 95 to 97 °C | O=C(CCC(=O)N1CCC[C@H]1C(=O)O)c1ccccc1 |
| 108 to 109 °C | CCOC(=O)C(C)(C)c1ccc(CCNC(=O)c2ccc(Cl)cc2)cc1 |
| 233 to 235 °C | CCn1cc(Br)ccc1=NC=C(S(=O)(=O)c1ccccc1)S(=O)(=O)c1ccccc1 |
| 84 to 86 °C | CC(O)COc1c2ccccc2c(C=O)c2ccccc12 (stereo not drawn) |

The next lines start with the compound.

| SMILES | melting point |
| --- | --- |
| CC(=O)Nc1cc(N(C)C)ccc1C1(c2ccc(N(C)C)cc2N(C)C)OC(=O)c2ccccc21 (stereo not drawn) | 97 to 136 °C |
| Oc1cc(Nc2nnc(Cc3ccncc3)c3ccccc23)ccc1Cl | 245 to 246 °C |
| CC1Cc2c(N3CCC(NC(=O)OC(C)(C)C)C3)c(F)cc3c(=O)[nH]c(=O)n1c23 (stereo not drawn) | 203 to 205 °C |
| CCn1cc(N(C)S(=O)(=O)c2cccs2)c2[nH]c(C3=NCCS3)cc21 | 163 °C |
| CCCc1nc2c(N)nc3ccccc3c2n1CCOCCCS(C)=O (stereo not drawn) | 148 to 151 °C |
| COC(=O)c1sccc1NC(C)=O | 93 to 95 °C |
| Cc1cc(-c2ccc(Cl)cc2)sc1C(=O)O | 245 to 246 °C |
| COc1ccc([C@@H]2Sc3ccccc3N(CCN(C)C)C(=O)[C@@H]2OC(=O)c2ccc([N+](=O)[O-])cc2Cl)cc1 | 153 to 156 °C |
| Cc1cccc(N2CCCCC2)c1NC(N)=S | 197 to 198 °C |
| O=C(O)C(S)c1cc(Cl)ccc1Cl (stereo not drawn) | 129 to 130 °C |
| N#Cc1ccc(Cc2ccc(-c3ccc(C#N)cn3)o2)cc1 | 204 to 206 °C |
| Cc1cc(SC2=C(O)CC(CCc3ccc(O)cc3)(C3CCCCC3)OC2=O)c(C(C)(C)C)cc1OS(=O)(=O)c1ccc(C#N)cc1 (stereo not drawn) | 112 °C |
| O=C(O)Cc1ccc(-n2cnc3cnc4ccccc4c32)cc1 | 236 to 240 °C |
| N#CCCNC(=O)c1cccc(-c2ccc3c(c2)N(Cc2ccc(Cl)cc2Cl)CCCC3)c1 | 139 to 140 °C |
| CC(=O)OC1CCC2(C)C(=CCC3C2CCC2(C)C(n4nccn4)=C(C=O)CC32)C1 (stereo not drawn) | 145 to 148 °C |
| CNC(=O)NS(=O)(=O)c1cc(CCNC(=O)C=Cc2ccc(OC)cc2OC)ccc1OC | 210 °C |
| O=C(Nc1ccccc1)c1ccc(C(=O)Nc2nnc(-c3cc(Cl)cc(Cl)c3O)s2)cc1 | 342 °C |
| Cc1cccc(-n2nc(C)cc2N)n1 | 149 to 150 °C |
| CCCCCCCCCCCCC1C=CC(Oc2ccc(C(=O)O)o2)=C2N=C3CCCCC3=C21 (stereo not drawn) | 110 to 112 °C |
| NC(=O)CCCN(CCCC1CCCCC1)C(=O)Nc1ccccc1 | 104 to 106 °C |
| CCn1c2cc(Cl)ccc2c2oc(C(=O)Cl)cc21 | 137 to 138 °C |
